Key:
D(1A) dopamine receptor [1] = molecular target: T1, D(1A) dopamine receptor (Rattus norvegicus, UniProt P18901); assay: Binding affinity to dopamine D1 receptor high binding site by radioligand displacement assay
D(3) dopamine receptor [2] = molecular target: T2, D(3) dopamine receptor (Homo sapiens, UniProt P35462); assay: Displacement of [3H]domperidone from human cloned dopamine D3 receptor high binding site expressed in mouse CCL1-3 cells by scintillation counting; assay type: cell-based
D(3) dopamine receptor [3] = molecular target: T2, D(3) dopamine receptor; assay: Displacement of [3H]domperidone from human cloned dopamine D3 receptor expressed in mouse CCL1-3 cells by scintillation counting; assay type: cell-based
D(1A) dopamine receptor [4] = molecular target: T1, D(1A) dopamine receptor; assay: Binding affinity to dopamine D1 receptor low binding site by radioligand displacement assay
D(2) dopamine receptor = D(2) dopamine receptor (Rattus norvegicus, UniProt P61169); assay: Displacement of [3H]domperidone from dopamine D2 receptor low binding site in Sprague-Dawley rat striatum by scintillation counting
D(3) dopamine receptor [5] = molecular target: T2, D(3) dopamine receptor; assay: Displacement of [3H]domperidone from human dopamine D3 receptor expressed in human HEK293 cells by scintillation counting; assay type: cell-based

T2 sequence (P35462 whole entry): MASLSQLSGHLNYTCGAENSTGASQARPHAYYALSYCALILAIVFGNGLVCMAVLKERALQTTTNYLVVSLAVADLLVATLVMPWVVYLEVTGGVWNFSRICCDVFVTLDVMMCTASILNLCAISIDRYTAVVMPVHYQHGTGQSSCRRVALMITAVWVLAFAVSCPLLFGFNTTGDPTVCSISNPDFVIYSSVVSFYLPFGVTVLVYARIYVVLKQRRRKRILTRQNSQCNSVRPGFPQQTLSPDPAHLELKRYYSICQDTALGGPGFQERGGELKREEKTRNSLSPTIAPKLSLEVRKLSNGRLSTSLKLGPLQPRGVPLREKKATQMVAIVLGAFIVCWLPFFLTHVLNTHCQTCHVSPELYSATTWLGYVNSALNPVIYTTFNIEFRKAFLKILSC
T1 sequence (P18901 whole entry): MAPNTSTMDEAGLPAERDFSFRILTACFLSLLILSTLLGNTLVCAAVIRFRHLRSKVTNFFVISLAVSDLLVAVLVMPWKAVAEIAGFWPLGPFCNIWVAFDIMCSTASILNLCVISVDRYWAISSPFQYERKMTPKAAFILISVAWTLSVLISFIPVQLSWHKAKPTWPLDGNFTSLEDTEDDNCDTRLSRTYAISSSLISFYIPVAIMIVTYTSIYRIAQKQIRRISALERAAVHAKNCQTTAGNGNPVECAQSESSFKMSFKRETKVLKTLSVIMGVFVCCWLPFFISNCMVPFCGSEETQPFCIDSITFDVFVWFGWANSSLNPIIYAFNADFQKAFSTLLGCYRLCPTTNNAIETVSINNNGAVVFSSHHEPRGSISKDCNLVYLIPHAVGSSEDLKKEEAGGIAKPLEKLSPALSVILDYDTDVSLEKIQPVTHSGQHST
Chain of D(2) dopamine receptor (P61169 whole entry): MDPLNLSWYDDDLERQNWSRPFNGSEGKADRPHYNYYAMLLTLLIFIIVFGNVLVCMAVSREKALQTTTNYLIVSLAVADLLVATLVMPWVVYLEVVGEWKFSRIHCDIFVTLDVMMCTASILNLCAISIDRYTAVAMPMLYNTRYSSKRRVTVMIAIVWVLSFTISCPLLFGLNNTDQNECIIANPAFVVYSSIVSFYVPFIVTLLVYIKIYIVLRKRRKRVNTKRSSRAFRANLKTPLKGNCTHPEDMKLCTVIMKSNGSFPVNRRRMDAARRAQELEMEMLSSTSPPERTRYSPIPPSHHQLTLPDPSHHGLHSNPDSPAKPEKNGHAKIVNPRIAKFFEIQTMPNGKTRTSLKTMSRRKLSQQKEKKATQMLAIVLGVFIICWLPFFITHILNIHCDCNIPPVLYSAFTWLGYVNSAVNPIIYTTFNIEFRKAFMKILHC

| SMILES | Ki (D(1A) dopamine receptor [1]) | Ki (D(3) dopamine receptor [2]) | Ki (D(3) dopamine receptor [3]) | Ki (D(1A) dopamine receptor [4]) | Ki (D(2) dopamine receptor) | Ki (D(3) dopamine receptor [5]) |
| --- | --- | --- | --- | --- | --- | --- |
| CCCN1CCc2cc(OC)cc3c2[C@H]1Cc1cccc(O)c1-3 | Not Active | 0.13 µM | > 10 µM |  |  |  |
| CN1CCc2cc(OCCF)cc3c2[C@H]1Cc1ccc(O)c(O)c1-3 | Not Active |  | > 10 µM | 3.7 µM |  |  |
| CCCN1CCc2cccc3c2[C@H]1Cc1cccc(O)c1-3 | Not Active | 0.0012 µM |  |  |  |  |
| CCCN1CCc2cc(OCCF)cc3c2[C@H]1Cc1cccc(O)c1-3 | Not Active |  |  | > 5 µM |  |  |
| CCN1CCc2cc(OCCF)cc3c2[C@H]1Cc1ccc(O)c(O)c1-3 | Not Active | 0.25 µM | > 10 µM | > 5 µM |  |  |
| CCN1CCc2cc(OCCF)cc3c2[C@H]1Cc1cccc(O)c1-3 | Not Active |  |  | > 5 µM |  |  |
| CCCN1CCc2cc(OCCCF)cc3c2[C@H]1Cc1ccc(O)c(O)c1-3 | Not Active | 0.0011 µM |  | > 5 µM |  |  |
| CCN1CCc2cc(OCCCF)cc3c2[C@H]1Cc1cccc(O)c1-3 | Not Active |  |  | > 5 µM |  |  |
| CCN1CCc2cc(OCCCF)cc3c2[C@H]1Cc1ccc(O)c(O)c1-3 | Not Active | 0.23 µM | > 10 µM | > 5 µM |  |  |
| CN1CCc2cc(OCCCF)cc3c2[C@H]1Cc1ccc(O)c(O)c1-3 | Not Active |  | > 10 µM | > 5 µM | > 10 µM |  |
| CCCN1CCc2cc(OCCCF)cc3c2[C@H]1Cc1cccc(O)c1-3 | Not Active |  |  | > 5 µM |  |  |
| CCCN1CCc2cc(OC)cc3c2[C@H]1Cc1ccc(O)c(O)c1-3 |  |  |  | > 5 µM |  | 0.00102 µM |
| Oc1cccc2c1-c1cccc3c1[C@@H](C2)N(CCCF)CC3 | Not Active |  |  | > 5 µM |  |  |
| CCCN1CCc2cc(OCCF)cc3c2[C@H]1Cc1ccc(O)c(O)c1-3 | Not Active | 0.0019 µM |  | > 5 µM |  |  |
| CN1CCc2cc(OCCF)cc3c2[C@H]1Cc1cccc(O)c1-3 | Not Active |  |  |  |  |  |
| CCCN1CCc2cc(F)cc3c2[C@H]1Cc1ccc(O)c(O)c1-3 | Not Active | 0.0038 µM | > 10 µM | > 5 µM |  |  |
